Patent US20240360194A1, “New Peptides as Potent and Selective GIP Receptor Agonists” (Sanofi, priority 2021, published 2024)
pEC50, pIC50: −log10 of the molar value. Converted amounts (≈) assume the structure as drawn. Numbered stars: 1 amine (or outer) side, 2 acyl side, 3 side chain; on linkers, the order of the positions; unused ones are H or OH. Square brackets hold non-standard residues; d marks the D form. Side chains are listed from the residue outwards. Peptide text beside a SMILES is read from it. * marks the point of attachment. C18 diacid = O=C(O)CCCCCCCCCCCCCCCCC(=O)*; γGlu = O=C(O)[C@H](CCC(=O)[*:2])N[*:1]; AEEA = NCCOCCOCC(=O)O; Aib = CC(C)(N)C(=O)O

Key:
[1] = Solubility assessment (UHPLC-UV of supernatant, target 10 mg/ml); assay type: physicochemical
Procedure, shortened: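 Peptides at 10 mg/ml (purity-corrected) in 100 mM phosphate pH 7.4, optionally with 2.7 mg/ml m-cresol; gentle agitation 1 h, then 5° C. overnight (24 h). Supernatant after 15 min centrifugation at 2500 RCF quantified by UHPLC-UV, with sequence-based extinction coefficients.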

[2] = molecular target: human GLP-1 receptor (hGLP-1R) (Homo sapiens, UniProt P43220); assay: In vitro cellular cAMP assay for GLP-1 receptor efficacy (HEK-293 cell line over-expressing receptor); assay type: cell-based; details: HEK-293, 0.1% BSA
Sequence of human GLP-1 receptor (hGLP-1R) (P43220 24-463): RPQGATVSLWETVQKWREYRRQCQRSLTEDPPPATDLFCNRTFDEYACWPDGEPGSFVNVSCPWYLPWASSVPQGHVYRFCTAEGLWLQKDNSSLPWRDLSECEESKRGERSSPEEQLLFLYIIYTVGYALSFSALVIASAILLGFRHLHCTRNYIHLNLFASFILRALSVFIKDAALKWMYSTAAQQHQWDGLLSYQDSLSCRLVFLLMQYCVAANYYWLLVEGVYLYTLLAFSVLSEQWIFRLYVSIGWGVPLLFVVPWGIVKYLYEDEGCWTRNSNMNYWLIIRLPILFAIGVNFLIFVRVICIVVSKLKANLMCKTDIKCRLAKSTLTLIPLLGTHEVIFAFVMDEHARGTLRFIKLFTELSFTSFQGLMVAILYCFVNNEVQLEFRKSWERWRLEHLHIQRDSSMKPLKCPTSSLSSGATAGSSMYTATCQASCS

[3] = Pharmacokinetic evaluation in rats; assay type: in vivo; details: male, SD, rat, in vivo
Description: Compounds were administered in a suitable buffer system, e.g. PBS buffer solution at pH7.4 or DPBS solution at concentrations of 0.05, 0.1, 0.5 or 1 mg/ml depending on dose, species and administration volume. Male SD rats were dosed 0.25 mg/kg, 0.5 mg/kg or 1 mg/kg intravenously (i.v.) or subcutaneously (s.c.). Blood samples were collected after 0.08, 0.25, 0.5, 1, 2, 4, 8, 24, 32, and 48 h post i.v. application and 0.25, 0.5, 1, 2, 4, 8, 24, 32, and 48 h post s.c. application, respectively. Plasma samples were analysed after protein precipitation via liquid chromatography mass spectrometry (LC/MS). PK parameters and half-life were calculated using Phoenix-WinNonlin 8.1 using a non-compartmental model and linear trapezoidal interpolation calculation. Pharmacokinetic profiles were determined as described in Methods.

[4] = molecular target: T1, human GIP receptor (hGIPR) (Homo sapiens, UniProt P48546); assay: Binding assay, displacement of [125I]GIP from HEK-293 membranes over-expressing GIPR (SPA); details: [125I]GIP displacement
T1 sequence (P48546 22-466): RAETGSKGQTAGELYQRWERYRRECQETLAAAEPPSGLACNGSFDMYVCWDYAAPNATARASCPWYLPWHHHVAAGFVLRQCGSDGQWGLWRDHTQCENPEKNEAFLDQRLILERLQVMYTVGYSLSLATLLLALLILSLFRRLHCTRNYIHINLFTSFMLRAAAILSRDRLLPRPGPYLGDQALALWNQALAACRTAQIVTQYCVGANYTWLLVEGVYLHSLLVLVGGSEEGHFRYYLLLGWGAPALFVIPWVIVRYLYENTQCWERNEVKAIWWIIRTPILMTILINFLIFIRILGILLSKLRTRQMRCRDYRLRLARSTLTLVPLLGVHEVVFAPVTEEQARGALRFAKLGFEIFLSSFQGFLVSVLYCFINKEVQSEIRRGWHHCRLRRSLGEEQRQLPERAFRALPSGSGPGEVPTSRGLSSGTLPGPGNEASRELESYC
Procedure, shortened: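 Membranes from HEK-293 cells over-expressing human GIPR or GLP-1R, isolated by homogenising, sonicating and ultracentrifuging at 100000×g into HEPES/EDTA/NaCl buffer with protease inhibitors, were used for binding.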

[5] = Chemical stability assessment (UHPLC-UV purity loss on storage in solution); assay type: physicochemical; details: Chemical stability buffer system A: 20 mM phosphate buffer pH 7.4; ~300 μM
Description: Purity of a peptide batch was determined through UHPLC/MS prior to chemical stability measurement. The target concentration was 300 μM pure compound. Solutions from solid samples were prepared in the following buffer systems with a concentration of ˜300 μM compound based on the previously determined % purity: • Chemical stability buffer system A) 20 mM phosphate buffer pH 7.4, • Chemical stability buffer system B) 8 mM phosphate buffer pH 7.4, 14 mg/ml propylene glycol, 5.5 mg/ml phenol • Chemical stability buffer system C) 100 mM phosphate buffer pH 7.4, 2.7 mg/ml m-cresol
Prepared solutions were filtered through […] pore size and filled into sterilized glass containers under laminar flow conditions.
Glass containers were stored for 28 days at 5 and 40° C. After this time, the samples were centrifuged for 15 min at 2500 RCF. Then 1.5 μl of the undiluted supernatant were analysed with UHPLC-UV.
The chemical stability was rated through the relative loss of purity calculated by the equation: […]
The purity is calculated as
The analytical methods used were Analytical UHPLC Method B or C.
Peptide samples were prepared in Chemical stability buffer system A or B and stability was assessed as described in Methods.

Row | SMILES | solubility ([1]; pH 7.4, Soluble amount) [µg/mL] | pEC50 [2] | AUC(0-t) ([3]; iv, 0.25 mg/kg) [ng·h/mL] | Cmax ([3]; iv, 0.25 mg/kg) [ng/mL] | clearance ([3]; iv, 0.25 mg/kg) [mL/h/kg] | half-life ([3]; iv, 0.25 mg/kg) [h] | AUC(0-t) ([3]; sc, 0.5 mg/kg) [ng·h/mL] | Cmax ([3]; sc, 0.5 mg/kg) [ng/mL] | bioavailability ([3]; sc, 0.5 mg/kg) [%] | half-life ([3]; sc, 0.5 mg/kg) [h] | pIC50 [4] | Relative purity loss over 28 days at 40° C. [5] [%] | Soluble amount ([1]; 24 h, pH 7.4) [mg/mL] | solubility at 24 h ([1]; pH 7.4, Soluble amount) [µg/mL]
1 | CC[C@H](C)[C@H](NC(=O)[C@H](CCCNC(=N)N)NC(=O)[C@H](CC(=O)O)NC(=O)[C@H](CCCCNC(=O)COCCOCCNC(=O)COCCOCCNC(=O)CC[C@H](NC(=O)CCCCCCCCCCCCCCCCC(=O)O)C(=O)O)NC(=O)C(C)(C)NC(=O)[C@@H](NC(=O)[C@H](CO)NC(=O)[C@H](CC(C)C)NC(=O)[C@H](CC(=O)O)NC(=O)[C@H](CO)NC(=O)[C@@H](NC(=O)[C@@](C)(CC)NC(=O)[C@@H](NC(=O)CNC(=O)[C@H](CCC(=O)O)NC(=O)C(C)(C)NC(=O)[C@@H](N)Cc1ccc(O)cc1)[C@@H](C)O)[C@@H](C)CC)[C@@H](C)CC)C(=O)N[C@@H](Cc1c[nH]cn1)C(=O)N[C@@H](CCC(N)=O)C(=O)NC(C)(C)C(=O)N[C@@H](CCC(=O)O)C(=O)N[C@@H](Cc1ccccc1)C(=O)N[C@H](C(=O)N[C@@H](CCC(=O)O)C(=O)N[C@@H](Cc1c[nH]c2ccccc12)C(=O)N[C@@H](CC(C)C)C(=O)N[C@@H](CC(C)C)C(=O)N[C@@H](C)C(=O)N[C@@H](CCC(N)=O)C(=O)N[C@@H](CCCNC(=N)N)C(=O)NCC(N)=O)[C@@H](C)CC [SEQ ID NO: 16, H2N-Y-Aib-E-G-T-Iva-I-S-D-L-S-I-Aib-K[{AEEA}2-gGlu-C18OH]-D-R-I-H-Q-Aib-E-F-I-E-W-L-L-A-Q-R-G-NH2] | 5400 (≈ 1260 µM) | < 8.00 | 41500 | 7050 | 5.74 | 11.5 | 43900 | 1720 | 55 | 10.8 | 10.00 | – | – | –
2 | CC[C@H](C)[C@H](NC(=O)[C@H](CCC(=O)O)NC(=O)[C@H](CCC(=O)O)NC(=O)[C@H](CCCCNC(=O)COCCOCCNC(=O)COCCOCCNC(=O)CC[C@H](NC(=O)CCCCCCCCCCCCCCCCC(=O)O)C(=O)O)NC(=O)C(C)(C)NC(=O)[C@@H](NC(=O)[C@H](CO)NC(=O)[C@H](CC(C)C)NC(=O)[C@H](CC(=O)O)NC(=O)[C@H](CO)NC(=O)[C@@H](NC(=O)[C@H](Cc1ccccc1)NC(=O)[C@@H](NC(=O)CNC(=O)[C@H](CCC(=O)O)NC(=O)C(C)(C)NC(=O)[C@@H](N)Cc1ccc(O)cc1)[C@@H](C)O)[C@@H](C)CC)[C@@H](C)CC)C(=O)N[C@@H](Cc1c[nH]cn1)C(=O)N[C@@H](CCC(N)=O)C(=O)NC(C)(C)C(=O)N[C@@H](CCC(=O)O)C(=O)N[C@@H](Cc1ccccc1)C(=O)N[C@H](C(=O)N[C@@H](CCC(=O)O)C(=O)N[C@@H](Cc1c[nH]c2ccccc12)C(=O)N[C@@H](CC(C)C)C(=O)N[C@@H](CC(C)C)C(=O)N[C@@H](C)C(=O)N[C@@H](CCC(N)=O)C(=O)NCC(=O)N1CCC[C@H]1C(=O)N[C@@H](CO)C(=O)N[C@@H](CO)C(=O)NCC(=O)N[C@@H](C)C(=O)N1CCC[C@H]1C(=O)N1CCC[C@H]1C(=O)N1CCC[C@H]1C(=O)N[C@@H](CO)C(N)=O)[C@@H](C)CC [SEQ ID NO: 19, H2N-Y-Aib-E-G-T-F-I-S-D-L-S-I-Aib-K[{AEEA}2-gGlu-C18OH]-E-E-I-H-Q-Aib-E-F-I-E-W-L-L-A-Q-G-P-S-S-G-A-P-P-P-S-NH2] (H-Y[Aib]EGTFISDLSI[Aib]K([AEEA-AEEA-γGlu-C18 diacid])EEIHQ[Aib]EFIEWLLAQGPSSGAPPPS-NH2) | – | < 8.00 | 194000 | 12800 | 1.09 | 19.6 | 189000 | 5590 | 54 | 20.1 | – | 4.3 | – | –
3 | CC[C@H](C)[C@H](NC(=O)[C@H](CCCNC(=N)N)NC(=O)[C@H](CCC(=O)O)NC(=O)[C@H](CCCCNC(=O)COCCOCCNC(=O)COCCOCCNC(=O)CC[C@H](NC(=O)CCCCCCCCCCCCCCCCC(=O)O)C(=O)O)NC(=O)C(C)(C)NC(=O)[C@@H](NC(=O)[C@H](CO)NC(=O)[C@H](CC(C)C)NC(=O)[C@H](CC(=O)O)NC(=O)[C@H](CO)NC(=O)[C@@H](NC(=O)[C@H](Cc1ccccc1)NC(=O)[C@@H](NC(=O)CNC(=O)[C@H](CCC(=O)O)NC(=O)C(C)(C)NC(=O)[C@@H](N)Cc1ccc(O)cc1)[C@@H](C)O)[C@@H](C)CC)[C@@H](C)CC)C(=O)N[C@@H](Cc1c[nH]cn1)C(=O)N[C@@H](CCC(N)=O)C(=O)NC(C)(C)C(=O)N[C@@H](CCC(=O)O)C(=O)N[C@@H](Cc1ccccc1)C(=O)N[C@H](C(=O)N[C@@H](CCC(=O)O)C(=O)N[C@@H](Cc1c[nH]c2ccccc12)C(=O)N[C@@H](CC(C)C)C(=O)N[C@@H](CC(C)C)C(=O)N[C@@H](C)C(=O)N[C@@H](CCC(N)=O)C(=O)NCC(=O)N1CCC[C@H]1C(=O)N[C@@H](CO)C(=O)N[C@@H](CO)C(=O)NCC(=O)N[C@@H](C)C(=O)N1CCC[C@H]1C(=O)N1CCC[C@H]1C(=O)N1CCC[C@H]1C(=O)N[C@@H](CO)C(N)=O)[C@@H](C)CC [SEQ ID NO: 21, H2N-Y-Aib-E-G-T-F-I-S-D-L-S-I-Aib-K[{AEEA}2-gGlu-C18OH]-E-R-I-H-Q-Aib-E-F-I-E-W-L-L-A-Q-G-P-S-S-G-A-P-P-P-S-NH2] (H-Y[Aib]EGTFISDLSI[Aib]K([AEEA-AEEA-γGlu-C18 diacid])ERIHQ[Aib]EFIEWLLAQGPSSGAPPPS-NH2) | – | < 8.00 | 25800 | 1020 | 9.04 | 12.9 | 33900 | 1020 | 68 | 12.1 | 9.10 | – | >10.0 | 10100 (≈ 2030 µM)
4 | CC[C@H](C)[C@H](NC(=O)[C@H](Cc1ccccc1)NC(=O)[C@H](CCC(=O)O)NC(=O)C(C)(C)NC(=O)[C@H](CCC(N)=O)NC(=O)[C@H](Cc1c[nH]cn1)NC(=O)C(C)(C)NC(=O)[C@H](CCCNC(=N)N)NC(=O)[C@H](CC(=O)O)NC(=O)[C@H](CCCCNC(=O)COCCOCCNC(=O)COCCOCCNC(=O)CC[C@H](NC(=O)CCCCCCCCCCCCCCCCC(=O)O)C(=O)O)NC(=O)C(C)(C)NC(=O)[C@@H](NC(=O)[C@H](CO)NC(=O)[C@H](CC(C)C)NC(=O)[C@H](CC(=O)O)NC(=O)[C@H](CO)NC(=O)[C@@H](NC(=O)[C@H](Cc1ccccc1)NC(=O)[C@@H](NC(=O)CNC(=O)[C@H](CCC(=O)O)NC(=O)C(C)(C)NC(=O)[C@@H](N)Cc1ccc(O)cc1)[C@@H](C)O)[C@@H](C)CC)[C@@H](C)CC)C(=O)N[C@@H](CCC(=O)O)C(=O)N[C@@H](Cc1c[nH]c2ccccc12)C(=O)N[C@@H](CC(C)C)C(=O)N[C@@H](CC(C)C)C(=O)N[C@@H](C)C(=O)N[C@@H](CCC(N)=O)C(=O)N[C@@H](CCCNC(=N)N)C(=O)N1CCC[C@H]1C(=O)N[C@@H](CO)C(=O)N[C@@H](CO)C(=O)NCC(=O)N[C@@H](C)C(=O)N1CCC[C@H]1C(=O)N1CCC[C@H]1C(=O)N1CCC[C@H]1C(=O)N[C@@H](CO)C(N)=O [SEQ ID NO: 22, H2N-Y-Aib-E-G-T-F-I-S-D-L-S-I-Aib-K[{AEEA}2-gGlu-C18OH]-D-R-Aib-H-Q-Aib-E-F-I-E-W-L-L-A-Q-R-P-S-S-G-A-P-P-P-S-NH2] (H-Y[Aib]EGTFISDLSI[Aib]K([AEEA-AEEA-γGlu-C18 diacid])DR[Aib]HQ[Aib]EFIEWLLAQRPSSGAPPPS-NH2) | – | < 8.00 | 40200 | 6030 | 5.73 | 13.6 | 49900 | 1320 | 69 | 15.5 | 9.00 | 6.1 | – | –
